The values below come from patent US11351173B2, “Substituted pyrrolo[1,2-a]pyrimidines and their use in the treatment of medical disorders” (Bial—R&D Investments, S.A., priority 2014, dated 2022).

≈ marks a conversion by molar mass, not a printed value.

The nature of series [1]: Compound solubility in water. The settings on record: water, Compound Solubility in Water.
In series [2] the target is T1, glucocerebrosidase (Gcase) (Homo sapiens, UniProt P04062).
T1 construct: micellar solution containing 10 nM GCase and 100 nM saposin C
T1 sequence (P04062 40-536): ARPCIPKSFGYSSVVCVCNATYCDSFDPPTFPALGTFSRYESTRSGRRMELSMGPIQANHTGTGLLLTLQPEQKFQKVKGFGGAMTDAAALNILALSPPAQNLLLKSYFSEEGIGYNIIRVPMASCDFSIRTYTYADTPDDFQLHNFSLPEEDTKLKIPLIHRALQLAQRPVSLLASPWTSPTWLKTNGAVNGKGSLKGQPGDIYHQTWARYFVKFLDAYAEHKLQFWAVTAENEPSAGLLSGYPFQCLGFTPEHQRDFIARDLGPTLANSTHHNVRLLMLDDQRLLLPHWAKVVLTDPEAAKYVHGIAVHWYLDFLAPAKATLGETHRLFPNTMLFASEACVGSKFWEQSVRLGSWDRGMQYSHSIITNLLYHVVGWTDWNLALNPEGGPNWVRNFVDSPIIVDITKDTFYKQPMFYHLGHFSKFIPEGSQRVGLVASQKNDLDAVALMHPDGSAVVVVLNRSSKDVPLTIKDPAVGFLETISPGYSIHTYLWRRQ
As to the kind of experiment: Glucocerebrosidase (Gcase) activation assay, 4-methylumbelliferyl-beta-D-glucopyranoside substrate, fluorescence readout. Type of series: biochemical. The settings on record: for activation at 0.1 µM: test compound at 0.1 μM, read-out: Percent Gcase Activation, 0.1 μM Test Compound; for activation at 1 µM: test compound at 1.0 μM, read-out: Percent Gcase Activation, 1 μM Test Compound. The protocol: The ability of exemplary compounds to activate glucocerebrosidase (Gcase) was measured.
A 484 μL aliquot of a 1.0 mg/mL solution of phosphatidylserine (PS) (Sigma P7769) in chloroform was evaporated under a stream of nitrogen for 1 hour. The lipid film was dissolved over 4 minutes of vigorous vortexing in 40 mL of 176 mM K2HPO4/50 mM citric acid (pH 4.7) containing 7.5 μL of triton X-100, resulting in a mixed micellar preparation with a composition of 0.32 mM triton and 0.37 mol % PS. 4-Methylumbelliferyl-beta-D-glucopyranoside (ACROS-337025000) was dissolved in the micellar solution to a final concentration of 2 mM for use as the reaction substrate.
Test compounds were diluted to the desired concentrations with dimethylsulfoxide (DMSO) from 10 mM stocks, and 0.41 μL of the DMSO compound mixture was added to 100 μL of micellar solution containing 10 nM GCase and 100 nM saposin C (Enzo ALX-201-262-C050). Pre-incubation was allowed to occur for 30 minutes at room temperature, after which the reaction was initiated by combining 25 μL of substrate solution with 25 μL of compound/GCase/saposin mixture. The reaction proceeded for 15 minutes at room temperature and was stopped by adding 150 μL of 1M glycine, pH 12.5. The endpoint of the reaction was monitored by measuring fluorescence intensity (excitation: 365 nm; emission: 440 nm) on a SpectraMax i3 instrument (Molecular Devices). Test compounds were screened at 1.0 and 0.1 μM final concentration, and subsequent 8-point dose response curves were obtained using 3-fold dilutions from a maximum final concentration of 5 μM.

For the compound `CCCCCO[C@H]1CC[C@H](NC(=O)c2ccn3c(C(F)F)cc(C(F)F)nc23)CC1` [III-25], in series [1], the solubility was 0.4 µg/mL (≈ 0.931 µM). Besides, in series [2], the activation at 0.1 µM was above 20% and the activation at 1 µM was above 60%.
On the same counts, the results for `CCCCO[C@H]1CC[C@H](NC(=O)c2ccn3c(C)cc(C)nc23)CC1` [III-26] are 18.1 µg/mL (≈ 52.7 µM), above 20% and above 60%.
In series [1], `Cc1cc(C(F)F)n2ccc(C(=O)Nc3ccc(-c4cocn4)cc3)c2n1` [III-27] showed a solubility of 0.3 µg/mL (≈ 0.814 µM). In series [2], the activation at 0.1 µM is above 20% and the activation at 1 µM lay within 30 to 60%.
On the same counts, the results for `Cc1cc(C(F)F)n2ccc(C(=O)NC3CCCc4ccccc43)c2n1` (stereo not drawn) [III-28] are 0.7 µg/mL (≈ 1.97 µM), above 20% and above 60%.
The matching figures for `Cc1cc(C(F)F)nc2c(C(=O)NC3CCCc4ccccc43)ccn12` (stereo not drawn) [III-29]: 0.9 µg/mL (≈ 2.53 µM), above 20% and above 60%.
The matching figures for `Cc1cc(C(F)F)nc2c(C(=O)Nc3ccc(-c4cocn4)cc3)ccn12` [III-30]: 0.06 µg/mL (≈ 0.163 µM), above 20% and 30 to 60%.
Take `CCCCO[C@H]1CC[C@H](NC(=O)c2ccn3c(COC)cc(C)nc23)CC1` [III-33]: the solubility in series [1] amounted to 21 µg/mL (≈ 56.2 µM). In series [2], the activation at 0.1 µM lay within 10 to 20% and the activation at 1 µM is above 60%.
The matching figures for `CCCCO[C@H]1CC[C@H](NC(=O)c2ccn3c(COC)cc(C(F)F)nc23)CC1` [III-34]: 1.8 µg/mL (≈ 4.4 µM), 10 to 20% and above 60%.
On the same counts, the results for `CCCCO[C@H]1CC[C@H](NC(=O)c2ccn3c(C(F)F)cc(COC)nc23)CC1` [III-35] are 11.7 µg/mL (≈ 28.6 µM), above 20% and above 60%.
Take `CCCCO[C@H]1CC[C@H](NC(=O)c2ccn3c(COC)cc(C(C)C)nc23)CC1` [III-36]: the solubility in series [1] was found to be 3.5 µg/mL (≈ 8.72 µM). Moreover, in series [2], the activation at 0.1 µM was above 20% and the activation at 1 µM is above 60%.
The matching figures for `CCCCO[C@H]1CC[C@H](NC(=O)c2ccn3c(C(C)C)cc(COC)nc23)CC1` [III-37]: 18 µg/mL (≈ 44.8 µM), 10 to 20% and above 60%.
For `Cc1cc(Cl)nc2c(C(=O)Nc3ccc(-c4cocn4)cc3)ccn12` [III-38], the solubility in series [1] is 0.3 µg/mL (≈ 0.85 µM). In series [2], the activation at 0.1 µM was above 20% and the activation at 1 µM fell in the range of 30 to 60%.
On the same counts, the results for `Cc1cc(Cl)n2ccc(C(=O)Nc3ccc(-c4cocn4)cc3)c2n1` [III-39] are 0.7 µg/mL (≈ 1.98 µM), 10 to 20% and 30 to 60%.
Take `Cc1cc(Br)nc2c(C(=O)Nc3ccc(-c4cocn4)cc3)ccn12` [III-40]: the concentration in solution in series [1] (solubility) was 0.3 µg/mL (≈ 0.755 µM). In series [2], the activation at 0.1 µM fell in the range of 10 to 20% and the activation at 1 µM is above 60%.
On the same counts, the results for `Cc1cc(Br)n2ccc(C(=O)Nc3ccc(-c4cocn4)cc3)c2n1` [III-41] are 0.02 µg/mL (≈ 0.0503 µM), below 10% and 30 to 60%.
The matching figures for `COCc1cc(C)n2ccc(C(=O)N[C@H]3CCCc4ccccc43)c2n1` [III-42]: 0.4 µg/mL (≈ 1.14 µM), above 20% and above 60%.
On the same counts, the results for `COCCOCc1cc(C)n2ccc(C(=O)N[C@H]3CCCc4ccccc43)c2n1` [III-43] are 25.2 µg/mL (≈ 64 µM), 10 to 20% and above 60%.
Consider `CCCCO[C@H]1CC[C@H](NC(=O)c2ccn3c(C4CC4)cc(C)nc23)CC1` [III-44], for which the solubility in series [1] was 2.3 µg/mL (≈ 6.22 µM). Also, in series [2], the activation at 0.1 µM is 10 to 20% and the activation at 1 µM was above 60%.
On the same counts, the results for `CCCCO[C@H]1CC[C@H](NC(=O)c2ccn3c(C)cc(COC)nc23)CC1` [III-45] are 13.6 µg/mL (≈ 36.4 µM), 10 to 20% and above 60%.

In general, solubility refers to the concentration that dissolves in the medium under given conditions. Read a high solubility as much dissolved substance.
